Assay results as given in paper PMC3946276 (European journal of pharmacology, 2013).

Biological target: T1, G-protein coupled receptor 30 (GPR30) (Rattus norvegicus, UniProt O08878)
T1 sequence (O08878 1-375): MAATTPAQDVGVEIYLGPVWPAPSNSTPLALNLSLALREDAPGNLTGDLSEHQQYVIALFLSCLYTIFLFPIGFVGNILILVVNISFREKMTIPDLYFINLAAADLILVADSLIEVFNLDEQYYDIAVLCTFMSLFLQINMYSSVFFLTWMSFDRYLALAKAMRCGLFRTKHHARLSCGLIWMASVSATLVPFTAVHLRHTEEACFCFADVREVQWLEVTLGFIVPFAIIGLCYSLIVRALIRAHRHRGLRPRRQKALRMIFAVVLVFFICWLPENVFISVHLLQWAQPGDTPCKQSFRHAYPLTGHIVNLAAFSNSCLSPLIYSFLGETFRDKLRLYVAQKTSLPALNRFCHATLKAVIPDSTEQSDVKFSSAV
Assay: [3H]2ME2 saturation radioligand binding on WB cell membranes

Structure (SMILES): COc1cc2c(cc1O)CC[C@@H]1[C@@H]2CC[C@]2(C)[C@@H](O)CC[C@@H]12 [2ME2, 2-methoxyestradiol]
- Kd: ~10.1 nM
